CC(=O)Nc1nc(CC(=O)Nc2ncc(C(C)C)s2)cs1 [2-[2-(acetylamino)-1,3-thiazol-4-yl]-N-(5-isopropyl-1,3-thiazol-2-yl)acetamide]
melting point: 174 to 176 °C

Source: patent publication US6784198B1, “Arylmethyl-carbonylamino-thiazole derivatives and their use as antitumor agents” (Pharmacia Italia S.p.A., priority 1999, dated 2004)
